PubChem BioAssay (NCI)
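96-well plates; 48 h exposure; 5 concentrations. Endpoints by linear interpolation between flanking doses. Not reached: highest tested concentration assigned. The concentration for 50% growth inhibition is given as GI50. TGI: concentration producing complete growth inhibition.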

Tests used:
Assay in all cases: growth of human tumour cells (NCI), 48 h; in the data active = GI50 below about 0.43 µM; inactive = the rest
[1] = system: OVCAR-4 ovarian
[2] = system: SNB-19 CNS
[3] = system: CCRF-CEM leukemia
[4] = system: SF-295 CNS
[5] = system: SF-539 CNS
[6] = system: MALME-3M melanoma
[7] = system: HCT-116 colon
[8] = system: NCI-H23 lung
[9] = system: PC-3 prostate
[10] = system: SK-MEL-2 melanoma
[11] = system: MOLT-4 leukemia
[12] = system: EKVX NSCLC
[13] = system: MDA-N
[14] = system: A549 NSCLC
[15] = system: HOP-62 NSCLC
[16] = system: OVCAR-3 ovarian
[17] = system: K-562 leukemia
[18] = system: SR leukemia
[19] = system: KM12 colon
[20] = system: SNB-75 CNS
[21] = system: 786-0 renal
[22] = system: BT-549 breast
[23] = system: MDA-MB-435
[24] = system: TK-10 renal
[25] = system: CAKI-1 renal
[26] = system: OVCAR-5 ovarian
[27] = system: HL-60(TB) leukemia
[28] = system: HCT-15 colon
[29] = system: MCF7 breast
[30] = system: COLO 205 colon
[31] = system: SN12C renal
[32] = system: DU-145 prostate
[33] = system: HCC-2998 colon
[34] = system: UO-31 renal
[35] = system: MDA-MB-231 breast
[36] = system: NCI-H226 lung
[37] = system: HOP-92 NSCLC
[38] = system: SF-268 CNS
[39] = system: NCI/ADR-RES ovarian
[40] = system: SK-MEL-28 melanoma
[41] = system: A498 renal
[42] = system: HS 578T breast
[43] = system: IGROV1 ovarian
[44] = system: HT29 colon
[45] = system: NCI-H522 lung
[46] = system: M14 melanoma
[47] = system: RXF 393 renal
[48] = system: U251 CNS
[49] = system: LOX IMVI melanoma
[50] = system: UACC-257 melanoma
[51] = system: ACHN renal
[52] = system: SK-MEL-5 melanoma
[53] = system: OVCAR-8 ovarian
[54] = system: NCI-H460 lung
[55] = system: SW-620 colon
[56] = system: RPMI-8226 leukemia
[57] = system: UACC-62 melanoma
[58] = system: T-47D breast
[59] = system: SK-OV-3 ovarian

COc1cc(OC2OC(COC(=O)c3cc(O)c(O)c(O)c3)C(O)C(O)C2O)ccc1O (centres undefined)
> 100 µM: TGI [1] | TGI [2] | TGI [3] | TGI [4] | TGI [5] | TGI [6] | TGI [7] | TGI [8] | TGI [10] | TGI [11] | TGI [12] | TGI [13] | TGI [14] | TGI [15] | TGI [16] | TGI [17] | TGI [18] | TGI [19] | TGI [20] | TGI [21] | TGI [22] | TGI [24] | TGI [25] | TGI [26] | TGI [27] | TGI [28] | TGI [29] | TGI [30] | TGI [31] | TGI [32] | TGI [33] | TGI [34] | TGI [35] | TGI [36] | TGI [37] | TGI [38] | TGI [39] | TGI [40] | TGI [41] | TGI [42] | TGI [43] | TGI [44] | TGI [45] | TGI [46] | TGI [47] | TGI [48] | TGI [49] | TGI [50] | TGI [51] | TGI [52] | TGI [53] | TGI [54] | TGI [55] | TGI [56]
63.3 µM: TGI [23]
81.9 µM: TGI [9]

COc1ccc(CNc2nc3cc(C(F)(F)F)ccc3nc2-c2ccccc2)cc1OC
61.1 µM: TGI [44]
46.5 µM: TGI [54]
42.5 µM: TGI [29]
75.4 µM: TGI [25]
76.8 µM: TGI [49]
> 100 µM: TGI [1] | TGI [2] | TGI [3] | TGI [4] | TGI [5] | TGI [6] | TGI [7] | TGI [8] | TGI [9] | TGI [10] | TGI [11] | TGI [57] | TGI [12] | TGI [13] | TGI [14] | TGI [15] | TGI [16] | TGI [17] | TGI [18] | TGI [19] | TGI [20] | TGI [21] | TGI [22] | TGI [23] | TGI [24] | TGI [26] | TGI [27] | TGI [28] | TGI [30] | TGI [32] | TGI [58] | TGI [34] | TGI [35] | TGI [38] | TGI [39] | TGI [42] | TGI [43] | TGI [45] | TGI [46] | TGI [59] | TGI [47] | TGI [50] | TGI [51] | TGI [53] | TGI [55]
42.4 µM: TGI [52]
45.9 µM: TGI [33]

COc1ccccc1C1(C)SCc2nc3ccccc3n21 (centres undefined)
> 10 µM: TGI [1] | TGI [2] | TGI [3] | TGI [6] | TGI [8] | TGI [9] | TGI [10] | TGI [11] | TGI [13] | TGI [16] | TGI [17] | TGI [18] | TGI [19] | TGI [22] | TGI [23] | TGI [24] | TGI [26] | TGI [27] | TGI [28] | TGI [29] | TGI [31] | TGI [32] | TGI [34] | TGI [36] | TGI [37] | TGI [39] | TGI [45] | TGI [46] | TGI [48] | TGI [49] | TGI [55]

Cc1ccc2nc(-c3ccc(N)c4ccccc34)[nH]c2c1
15.2 µM: TGI [49]
> 100 µM: TGI [1] | TGI [29] | TGI [58]
4.57 µM: TGI [7]
3.29 µM: TGI [27]
17.3 µM: TGI [11]
21.1 µM: TGI [22]
34.5 µM: TGI [50]
12.1 µM: TGI [33]
59.6 µM: TGI [24]
> 71.5 µM: TGI [12]
> 54.1 µM: TGI [40]
1.64 µM: TGI [5]
19.4 µM: TGI [31]
1.85 µM: TGI [16]
1.73 µM: TGI [52]
2.1 µM: TGI [3]
20.9 µM: TGI [21]
16.9 µM: TGI [53]
17.2 µM: TGI [57]
16.7 µM: TGI [41]
13.5 µM: TGI [19]
9.53 µM: TGI [4]
32.4 µM: TGI [42]
> 73.3 µM: TGI [26]
> 42.4 µM: TGI [43]
4.39 µM: TGI [15]
22.5 µM: TGI [48]
3.53 µM: TGI [39]
23.9 µM: TGI [8]
6.31 µM: TGI [30]
24.8 µM: TGI [32]
0.427 µM: TGI [46]
0.934 µM: TGI [56]
37.1 µM: TGI [51]
39.7 µM: TGI [17]
> 31.6 µM: TGI [38]
2.09 µM: TGI [18]
inactive: GI50 [1] 8.58 µM | GI50 [2] 0.721 µM | GI50 [4] 0.716 µM | GI50 [6] 5.85 µM | GI50 [11] 1.36 µM | GI50 [14] 0.781 µM | GI50 [15] 0.617 µM | GI50 [16] 0.748 µM | GI50 [17] 0.763 µM | GI50 [19] 2.46 µM | GI50 [20] 1.38 µM | GI50 [24] 0.878 µM | GI50 [29] 2.68 µM | GI50 [30] 1.07 µM | GI50 [32] 0.437 µM | GI50 [58] 9.1 µM | GI50 [34] 0.437 µM | GI50 [36] 0.751 µM | GI50 [37] 2.62 µM | GI50 [40] 3.38 µM | GI50 [50] 9.5 µM | GI50 [51] 0.987 µM | GI50 [53] 1.31 µM | GI50 [54] 3.97 µM
1.3 µM: TGI [45]
0.444 µM: TGI [23]
49.1 µM: TGI [37]
27.5 µM: TGI [55]
27.3 µM: TGI [6]
> 46.7 µM: TGI [59]
> 44.7 µM: TGI [2]
13.4 µM: TGI [28]
36.4 µM: TGI [34]
14.7 µM: TGI [47]
22 µM: TGI [9]
13.3 µM: TGI [35]
active: GI50 [3] 0.0382 µM | GI50 [5] 0.0607 µM | GI50 [7] 0.04 µM | GI50 [8] 0.159 µM | GI50 [9] 0.0706 µM | GI50 [10] 0.209 µM | GI50 [57] < 0.0147 µM | GI50 [12] 0.185 µM | GI50 [18] 0.325 µM | GI50 [21] 0.161 µM | GI50 [22] 0.399 µM | GI50 [23] 0.187 µM | GI50 [25] 0.405 µM | GI50 [26] 0.326 µM | GI50 [27] 0.102 µM | GI50 [28] < 0.0425 µM | GI50 [31] 0.0913 µM | GI50 [33] 0.356 µM | GI50 [35] 0.0899 µM | GI50 [39] 0.0835 µM | GI50 [41] 0.0953 µM | GI50 [42] 0.263 µM | GI50 [43] 0.424 µM | GI50 [44] 0.361 µM | GI50 [45] 0.0958 µM | GI50 [46] 0.054 µM | GI50 [59] 0.283 µM | GI50 [47] 0.265 µM | GI50 [48] 0.0619 µM | GI50 [49] 0.0801 µM | GI50 [56] 0.0298 µM
32.1 µM: TGI [36]
5.62 µM: TGI [25]
> 46.2 µM: TGI [14]
24.9 µM: TGI [10]
